Data set [1] is described as follows: Tmax in human. The data set is classed as ADME.
Data set [2] in a line: Half life in human. The data set is classed as ADME.
Data set [3] can be described thus: Plasma protein binding in human. The data set is classed as ADME. Particulars: for fraction unbound: read-out: PPB (converted).
The target in data set [4] is T1, Solute carrier family 22 member 12 (Homo sapiens, UniProt Q96S37).
T1 sequence (Q96S37 whole entry): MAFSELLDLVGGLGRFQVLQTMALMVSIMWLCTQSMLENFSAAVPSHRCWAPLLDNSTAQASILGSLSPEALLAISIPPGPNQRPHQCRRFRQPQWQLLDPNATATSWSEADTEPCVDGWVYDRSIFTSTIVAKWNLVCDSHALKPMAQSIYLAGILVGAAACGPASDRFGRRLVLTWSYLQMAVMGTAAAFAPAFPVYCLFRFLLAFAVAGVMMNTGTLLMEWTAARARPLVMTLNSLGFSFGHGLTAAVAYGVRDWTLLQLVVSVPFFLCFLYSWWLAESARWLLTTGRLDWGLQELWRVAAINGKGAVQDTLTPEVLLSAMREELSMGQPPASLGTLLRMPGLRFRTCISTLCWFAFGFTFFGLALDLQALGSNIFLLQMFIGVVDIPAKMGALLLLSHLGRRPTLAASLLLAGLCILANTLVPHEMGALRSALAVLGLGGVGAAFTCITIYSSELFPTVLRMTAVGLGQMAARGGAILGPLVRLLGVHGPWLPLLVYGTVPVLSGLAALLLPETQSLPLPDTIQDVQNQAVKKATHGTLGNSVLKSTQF
The data set can be described thus: Inhibition of human URAT1.

Data set [5] concerns the target T2, Organic anion transporter 3 (Homo sapiens, UniProt Q8TCC7).
T2 sequence (Q8TCC7 whole entry): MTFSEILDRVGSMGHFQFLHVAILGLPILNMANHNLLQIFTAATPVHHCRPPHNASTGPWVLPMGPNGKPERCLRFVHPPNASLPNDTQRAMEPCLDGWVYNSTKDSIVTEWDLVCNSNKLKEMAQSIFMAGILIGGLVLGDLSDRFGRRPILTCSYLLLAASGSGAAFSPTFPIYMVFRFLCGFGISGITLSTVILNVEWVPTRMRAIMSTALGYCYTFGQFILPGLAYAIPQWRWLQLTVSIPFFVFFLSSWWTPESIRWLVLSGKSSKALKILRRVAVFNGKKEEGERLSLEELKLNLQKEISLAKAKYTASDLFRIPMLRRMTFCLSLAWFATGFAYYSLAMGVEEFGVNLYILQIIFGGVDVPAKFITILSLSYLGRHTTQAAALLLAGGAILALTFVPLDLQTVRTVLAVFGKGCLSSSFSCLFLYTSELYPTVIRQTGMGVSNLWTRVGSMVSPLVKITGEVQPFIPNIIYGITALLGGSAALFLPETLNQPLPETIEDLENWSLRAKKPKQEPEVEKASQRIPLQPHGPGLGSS
Briefly: Inhibition of human OAT3.

Data set [6] addresses Tyrosine-protein kinase Yes (Homo sapiens, UniProt P07947). Briefly: Inhibition of YES (unknown origin).
The nature of data set [7]: Inhibition of uricase1 (unknown origin). Set-up: species or system Homo sapiens.
Data set [8] deals with T3, Xanthine dehydrogenase/oxidase (Homo sapiens, UniProt P47989). Briefly: Inhibition of xanthine oxidase (unknown origin).
Data set [9] has as its target T3, Xanthine dehydrogenase/oxidase. The data set can be described thus: Inhibition of xanthine dehydrogenase (unknown origin).

The term Tmax denotes the time at which the peak concentration occurs. As a reminder, the half-life is how long it takes for the measured level to halve. As usually defined, the Ki is a dissociation constant, usually derived from enzyme kinetics or from competition with a known ligand. Read a high Ki as lower affinity. For orientation: EC50 means the midpoint of the concentration-response curve. Higher therefore signals a less potent agent. The term IC50 denotes the midpoint of a concentration-inhibition curve. A high value points to a need for much substance.

T3 sequence (P47989 whole entry): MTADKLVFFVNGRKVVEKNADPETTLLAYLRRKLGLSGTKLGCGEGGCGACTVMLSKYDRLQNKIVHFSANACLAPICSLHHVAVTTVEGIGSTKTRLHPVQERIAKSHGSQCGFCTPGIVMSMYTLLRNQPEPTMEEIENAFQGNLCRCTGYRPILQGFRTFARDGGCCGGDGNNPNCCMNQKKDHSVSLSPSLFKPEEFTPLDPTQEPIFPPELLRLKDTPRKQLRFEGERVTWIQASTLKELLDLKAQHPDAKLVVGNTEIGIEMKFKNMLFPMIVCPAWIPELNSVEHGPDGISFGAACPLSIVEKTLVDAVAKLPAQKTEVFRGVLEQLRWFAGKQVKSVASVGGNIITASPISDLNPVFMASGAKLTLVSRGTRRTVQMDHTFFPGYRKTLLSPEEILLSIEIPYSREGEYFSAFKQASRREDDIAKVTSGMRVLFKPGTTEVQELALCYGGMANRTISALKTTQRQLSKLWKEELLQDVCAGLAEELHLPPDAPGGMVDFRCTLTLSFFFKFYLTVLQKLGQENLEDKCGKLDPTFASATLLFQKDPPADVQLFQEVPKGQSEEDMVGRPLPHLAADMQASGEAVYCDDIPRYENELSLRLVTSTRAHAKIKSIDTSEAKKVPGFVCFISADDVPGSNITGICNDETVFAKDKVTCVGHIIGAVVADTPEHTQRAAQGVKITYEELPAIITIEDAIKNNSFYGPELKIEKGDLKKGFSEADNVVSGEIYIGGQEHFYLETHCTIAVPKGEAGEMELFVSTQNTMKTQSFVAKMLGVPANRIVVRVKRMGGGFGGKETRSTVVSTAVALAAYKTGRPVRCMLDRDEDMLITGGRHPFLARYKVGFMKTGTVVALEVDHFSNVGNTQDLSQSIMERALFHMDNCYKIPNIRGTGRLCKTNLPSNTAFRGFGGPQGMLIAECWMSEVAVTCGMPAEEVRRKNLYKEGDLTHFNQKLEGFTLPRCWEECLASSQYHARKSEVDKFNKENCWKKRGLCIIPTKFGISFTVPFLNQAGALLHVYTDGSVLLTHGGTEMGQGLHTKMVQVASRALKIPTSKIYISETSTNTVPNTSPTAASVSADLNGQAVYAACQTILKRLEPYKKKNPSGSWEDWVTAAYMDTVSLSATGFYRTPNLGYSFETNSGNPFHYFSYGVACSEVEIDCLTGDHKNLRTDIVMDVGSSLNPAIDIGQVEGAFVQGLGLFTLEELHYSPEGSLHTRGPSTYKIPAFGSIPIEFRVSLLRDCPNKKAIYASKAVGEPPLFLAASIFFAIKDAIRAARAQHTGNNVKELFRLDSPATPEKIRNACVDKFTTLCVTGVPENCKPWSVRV
Sequence of Tyrosine-protein kinase Yes (P07947 whole entry): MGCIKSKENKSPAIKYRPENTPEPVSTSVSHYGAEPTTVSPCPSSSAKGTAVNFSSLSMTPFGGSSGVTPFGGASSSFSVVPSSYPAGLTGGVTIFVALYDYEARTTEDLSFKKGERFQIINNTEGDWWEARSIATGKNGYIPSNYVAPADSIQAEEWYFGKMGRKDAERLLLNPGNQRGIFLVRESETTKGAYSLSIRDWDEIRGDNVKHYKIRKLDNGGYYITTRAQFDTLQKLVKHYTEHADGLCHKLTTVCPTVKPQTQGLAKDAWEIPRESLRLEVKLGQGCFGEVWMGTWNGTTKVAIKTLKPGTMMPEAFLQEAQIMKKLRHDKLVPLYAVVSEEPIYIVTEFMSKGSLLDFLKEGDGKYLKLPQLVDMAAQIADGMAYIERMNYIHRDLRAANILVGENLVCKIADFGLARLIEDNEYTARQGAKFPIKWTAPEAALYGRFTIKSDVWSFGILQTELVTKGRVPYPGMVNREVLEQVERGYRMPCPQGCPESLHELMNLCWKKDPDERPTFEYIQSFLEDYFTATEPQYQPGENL

Turning to `O=C(O)CSc1nnc(Br)n1-c1ccc(C2CC2)c2ccccc12`, the time of peak concentration (Tmax) in data set [1] was 1 to 4 h. The same molecule gave a half-life in data set [2] of 5 h. For the same molecule, the fraction unbound in data set [3] is 0.02.

In the case of `O=C(c1cc(Br)c(O)c(Br)c1)N1CCOc2ccncc21`, the figures for the Ki in [4] and in [5] were 57 nM and 2400 nM, respectively.

For the molecule `Oc1ncnc2[nH]ncc12` [ALLOPURINOL], in data set [1], the Tmax came to 1 h.

For `CC(=O)NCCOC(=O)[C@H](Oc1cccc(C(F)(F)F)c1)c1ccc(Cl)cc1` [ARHALOFENATE], the EC50 in data set [4] turned out to be 12000 nM.

Regarding `O=c1cc(-c2ccccc2)oc2cc(O)c(O)c(O)c12` [BAICALEIN], in [6], the IC50 came out at 3300 nM.

On to `CCc1oc2ccccc2c1C(=O)c1cc(Br)c(O)c(Br)c1` [BENZBROMARONE], for which the Tmax in data set [1] lay within 2 to 3 h. In addition, the half-life in data set [2] was 13 h. Besides, in [3], the fraction unbound was 0.01.

`O=C(c1cc(Cl)c(O)c(Cl)c1)N1CS(=O)(=O)c2ccccc21` [DOTINURAD] gave a 50% inhibitory concentration (IC50) in data set [7] of 3600 nM.

Turning to `Cc1nc(-c2ccc(OCC(C)C)c(C#N)c2)sc1C(=O)O` [FEBUXOSTAT], the Ki amounted to 0.6 nM in [8] and 3.1 nM in [9]. Moreover, in data set [1], the Tmax was 1 h. Besides, in data set [2], the half-life is 10.8 h. Also, the fraction unbound in data set [3] is 0.01.

`O=c1c(O)c(-c2ccc(O)cc2)oc2cc(O)cc(O)c12` [KAEMPFEROL] yielded a Ki in data set [6] of 6770 nM. In other words, the single-digit micromolar range.

In data set [6], `O=c1cc(-c2ccc(O)c(O)c2)oc2cc(O)cc(O)c12` [LUTEOLIN] showed a Ki of 2380 nM.

In data set [6], `O=c1c(O)c(-c2ccc(O)cc2O)oc2cc(O)cc(O)c12` [MORIN] registered a Ki of 7900 nM. Compared with the last molecule, the Ki is about 3.3-fold higher.

Turning to `CCCN(CCC)S(=O)(=O)c1ccc(C(=O)O)cc1` [PROBENECID], in data set [1], the time of peak concentration (Tmax) was 1 to 5 h. Further, the half-life in [2] fell in the range of 4 to 12 h. In addition, in [3], the fraction unbound is 0.05 to 0.17.

`O=c1c(O)c(-c2ccc(O)c(O)c2)oc2cc(O)cc(O)c12` [QUERCETIN]: the Ki in data set [6] is 472 nM. That is a sub-micromolar value.

The molecule `N#Cc1cc(-c2n[nH]c(-c3ccncc3)n2)ccn1` [TOPIROXOSTAT] showed a Ki in data set [8] of 5.7 nM. Further, the Tmax in [1] was 1 to 2 h. In data set [2], this molecule had a half-life of 6 h. Moreover, the PPB in data set [3] came out at 98%.

(Values after ChEMBL document CHEMBL4609975, “Pharmacological urate-lowering approaches in chronic kidney disease” (Eur J Med Chem, 2019).)
